Converted amounts (≈) assume the structure as drawn. Like-named read-outs stand apart in the source and are kept apart here.
Experiments:
[1] = Powder dissolution in SGF and SIF; format: physicochemical; details: for solubility at 180 min: thermodynamic from solid, 50 rpm, read-out: maximum solubility
Protocol: CUR-L-CN dissolves quickly and reaches its maximum concentration in 20 min. […] To understand this phenomenon, the residual powders after dissolution experiments were filtered and dried for PXRD analysis.
A mini bath dissolution device was used in the experiments, and a Julabo-5 heater was equipped for heating. The experiments were conducted at 37 °C with a rotational speed of 50 rpm. […] The dissolution rate experiments were measured in SGF and SIF containing 0.5% tween 80. SGF was prepared by diluting 16.4 mL of 10% HCl solution to 1000 mL with pure water. To prepare SIF, 6.8 g of KH2PO4 was dissolved in 500 mL of water; then, the pH was adjusted to 6.8 with NaOH solution with a concentration of 0.1 mol/L. At specified time points, i.e., 5 min, 10 min, 15 min, 20 min, 25 min, 30 min, 40 min, 50 min, 60 min, 90 min, 120 min, and 180 min, 0.5 mL of solution was withdrawn with a syringe. The collected solution was filtered through a 0.45 µm nylon filter and then subjected to HPLC determination. The dissolution studies of each solid form were conducted in triplicate (n = 3). After dissolution experiments, the residual samples were filtered and dried under vacuum for PXRD analysis.
The equipment has a diode array detector. An Agilent Zorbax Eclipse Plus C18 column was used in the experiments; it has a diameter of 4.6 mm, a length of 150 mm, and a filling aperture of 5 µm. The mobile phase contained 52% glacial acetic acid (4%) aqueous solution and 48% acetonitrile. The column temperature was set as 35 °C, and the UV-vis wavelength was set to 430 nm. A 10 µL sample was injected each time and the flow rate of the mobile phase was aet as 1 mL/min.

[2] = Wettability test by film flotation; format: physicochemical
Protocol: To confirm the hypothesis given in the section discussing […] surface analysis, wettability tests using film flotation methods were conducted in SGF with/without surfactants. […] The wettability test was performed in pure SGF and SGF with 0.1% sodium dodecyl sulfonate (SDS) or tween 80 using film flotation methods.

[3] = Dynamic vapor sorption (DVS) hygroscopicity; format: physicochemical; details: 25 °C
Protocol: The DVS profiles of different solid forms were tested on a SMS Intrinsic instrument, UK. To make sure each sample particle size was uniform, all samples were screened at 100 mesh (ΦA = 0.148 mm). Samples of 10–20 mg were used in the experiments. The DVS data were collected in an RH range of 0–95%. If the sample mass changes by less than 0.02% in 60 min, the next RH is conducted in a 5% step.

[4] = rats, intravenous and oral administration; cited from earlier work
[5] = Oral pharmacokinetic study in rats; format: in vivo; details: Sprague Dawley, rat, fasted male rats, oral 200 mg/kg in soybean oil, plasma treated with β-glucuronidase/sulfatase
Protocol: The in vivo pharmacokinetic investigations of the CUR-L-CN co-crystal and the marketed CUR crystal were carried out in fasted male rats. In vivo, CUR is easily conjugated, and it can be conjugated with glucuronic acid and sulfate to form monoglucuronides, monosulfates, and mixed glucuronide/sulfates.
After administration, approximately 0.4 mL of blood was collected from the orbit of the rats into heparinized tubes at 20 min, 40 min, 1 h, 1.5 h, 2.5 h, 4 h, 6 h, and 8 h. Plasma samples (100 μL) were precisely aspirated and vortexed with 50 μL of β-glucuronidase and sulfatase buffer at 37 °C for 60 min. Plasma samples were protein precipitated by adding 0.45 mL of methanol (0.2% acetic acid). After 10 min of shaking, the samples were centrifuged at 14,000 rpm for 3 min. Subsequently, the supernatants were analyzed via HPLC/MS. All experimental procedures were approved by the Animal Ethics Committee.
HPLC methods and conditions were the same as 4.13. A 10 µL sample was injected each time, and the flow rate of the mobile phase was set as 0.6 mL/min.
The AUC0–t was calculated from plasma concentrations observed from 0 to 8 h using a linear trapezoidal approach.

[6] = parameters: method as in U.S. Expert Review Board; details: adults; ref U.S. Expert Review Board; cited from earlier work

Row | time to reach maximum concentration in dissolution ([1]; powder dissolution, 37 °C) | solubility at 180 min ([1]; simulated gastric fluid (SGF) with 0.5% tween 80, aqueous with cosolvent or surfactant or cyclodextrin, SGF containing 0.5% tween 80, 37 °C) [µg/mL] | solubility at 180 min ([1]; simulated intestinal fluid (SIF) with 0.5% tween 80, aqueous with cosolvent or surfactant or cyclodextrin, SIF pH 6.8 containing 0.5% tween 80, 37 °C) [µg/mL] | wettability (powder sinking) ([2]; SGF containing 0.1% SDS, after 10 min) | wettability (powder sinking) ([2]; SGF without surfactant) | mass change ([3]; during 0%-95% RH) | Cmax [5] [ng/mL] | Tmax [5] [h] | AUC(0-t) ([5]; 0 to 8 h, read-out: AUC0–8) [ng·h/mL] | SMILES | oral bioavailability [4] | water uptake ([3]; at 40% RH) [%] | water uptake / water content ([3]; at 95% RH) [%] | water that cannot be removed ([3]; when RH decreases to 0%) [%] | dose rated as safe as nutritional supplement [6] [mg/kg/day]
1 | continues to increase over 180 min | 48.2 (≈ 131 µM) | 24.5 (≈ 66.5 µM) | only a small quantity of CUR had sunk | could not sink into the fluid | nearly no mass change | 67.9 | 1.5 | 110 | COc1cc(/C=C/C(=O)CC(=O)/C=C/c2ccc(O)c(OC)c2)ccc1O [CUR, Curcumin] | about 1% |  |  |  | 
2 |  |  |  |  |  |  |  |  |  | C[N+](C)(C)C[C@H](O)CC(=O)[O-] [L-CN, L-carnitine] |  | 39.9 | 174.2 | 23.6 | 20

From article PMC11053631 (Pharmaceuticals, 2024)
